Data reported in patent US20250034201A1, “PRODRUGS OF GANAXOLONE” (priority 2022, published 2025).

How the values were obtained:
in vitro [1] = format: in vitro ADME, human
Method: (§1) For several compounds only human liver microsomal stability was tested. […] The microsomal assays were carried out with and without the addition of NADPH at a final concentration of 1 mM. For negative control samples, NADPH reagent was not added. […] Note that compounds undergo only Phase I metabolism in liver microsomes.

[2] = Stability in simulated gastric fluid (SGF); format: in vitro ADME
Method: (§2) The stability of exemplary compounds in simulated gastric fluid (SGF) and simulated intestinal fluid (SIF) was tested according to the following protocol.

[3] = Stability in simulated intestinal fluid (SIF); format: in vitro ADME
Method: as §2

in vitro [4] = assay: in vitro
Method: The plasma stability of exemplary compounds was tested using rat, mice, dog, and human plasma, according to the following protocol. For each test compound, samples at a final concentration of 2 μg/mL were prepared in blank plasma of selected species. All samples were incubated at 37° C. on a 150-RPM orbital shaker, and an aliquot was removed at pre-determined time points (0, 15, 30, 60, and 120 minutes). Samples were precipitated with three volumes of acetonitrile containing propranolol as internal standard, and centrifuged for 10 min at 2000 g before LC/MS/MS analysis of the supernatant solutions.

[5] = Rat liver microsomal stability; format: in vitro ADME
Method: as §1
(§3) CLint=the intrinsic hepatic clearance (uL/min/mg), where CLint is equal to 0.693/(t1/2×Cmp)

Dog plasma stability = format: in vitro ADME
[6] = Dog liver microsomal stability; format: in vitro ADME
Method: as §1, §3
Certain compounds were also tested in mice and dog liver microsome assays according to the protocol outlined above. […].

[7] = human liver microsomes 0.5 mg/mL, with NADPH, compound 0.5 μM, 37° C., read-out: Human Liver Microsomal Stability t1/2
[8] = human liver microsomes 0.5 mg/mL, with NADPH, compound 0.5 μM, read-out: Human Liver Microsomal Stability CLint (uL/min/mg liver) (converted)
[9] = human liver microsomes, no NADPH, compound 0.5 μM
[10] = SGF with pepsin pH 1.2, 37° C., 60 min
[11] = SIF with pancreatin pH 6.8, 37° C., 60 min
[12] = rat liver microsomes 0.5 mg/mL, with NADPH, compound 0.5 μM, 37° C., read-out: Rat Liver Microsomal Stability t1/2
[13] = rat liver microsomes 0.5 mg/mL, with NADPH, compound 0.5 μM, read-out: Rat Liver Microsomal Stability CLint (uL/min/mg liver)
[14] = rat liver microsomes, no NADPH, compound 0.5 μM
[15] = simulated gi fluid, 1 h, pH 1.2
[16] = simulated gi fluid, 1 h, pH 6.8
[17] = simulated gi fluid, SGF with pepsin pH 1.2, 37° C., 2 μg/mL, read-out: SGF t1/2
[18] = simulated gi fluid, SIF with pancreatin pH 6.8, 37° C., 2 μg/mL, read-out: SIF t1/2

Row | Compound | Comments: production of GNX (ganaxolone) in human liver microsomes (in vitro [1]; human liver microsomes) | half-life (in vitro [1]; [7]) [min] | microsomal CLint (in vitro [1]; [8]) [µL/min/mg] | Human Liver Microsomal Stability no NADPH, % remain 1 h (in vitro [1]; [9]) [%] | SGF (% remain, 60 min) [2, 10] [%] | SIF (% remain, 60 min) [3, 11] [%] | Human plasma t90 (in vitro [4]; human plasma, 2 μg/mL, 37° C.) [min] | Observations: stability / GNX production in human plasma (in vitro [4]; human, plasma) | half-life (in vitro [4]; human, plasma) [min] | half-life (in vitro [4]; rat, plasma) [min] | Comments: production of GNX (ganaxolone) in rat liver microsomes ([5]; rat liver microsomes) | half-life (in vitro [1]; human, microsomes) [min] | microsomal CLint (in vitro [1]; human, microsomes) [µL/min/mg] | Human Liver Microsomal Stability no NADPH, % remain 1 h (in vitro [1]; human, microsomes) [%] | SGF (% remain, 60 min) [2, 15] [%] | half-life [2, 17] [min] | half-life [3, 18] [min] | other results
1 | COc1ccccc1N1CCN(CC(=O)O[C@]2(C)CC[C@@]3(C)[C@@H](CC[C@@H]4[C@@H]3CC[C@]3(C)[C@@H](C(C)=O)CC[C@@H]43)C2)CC1 [Compound 100] | GNX not produced in human or rat | 11.9 | 116 | 100.0 | 90.8 | 93.2 | 27.8 | Stable in human, GNX not | 184 | 185 | GNX not produced in human or rat | – | – | – | – | – | – | Rat plasma t90 (in vitro [4]; rat plasma, 2 μg/mL, 37° C.): 27.9 min; half-life [5, 12]: 12.7 min; microsomal CLint [5, 13]: 109 µL/min/mg; Rat Liver Microsomal Stability no NADPH, % remain 1 h [5, 14]: 98.0%
2 | CC(=O)[C@H]1CC[C@H]2[C@@H]3CC[C@H]4C[C@](C)(OC(=O)CN5CCOCC5)CC[C@]4(C)[C@H]3CC[C@]12C [Compound 101] | GNX not produced in human or rat | – | – | – | – | – | – | Stable in human | 1620 | 2270 | GNX not produced in human or rat | 10.2 | 137 | 99.0 | 90.5 | – | – | SIF (% remain, 60 min) [3, 16]: 90.2%; Human plasma t90 (in vitro [4]; human): 243.0 min; Rat plasma t90 (in vitro [4]; rat): 342.0 min; half-life ([5]; rat, microsomes): 6.8 min; microsomal CLint ([5]; rat, microsomes): 204 µL/min/mg; Rat Liver Microsomal Stability no NADPH, % remain 1 h ([5]; rat, microsomes): 100.0%
3 | CC(=O)[C@H]1CC[C@H]2[C@@H]3CC[C@H]4C[C@](C)(OC(=O)CN5CCN(C)CC5)CC[C@]4(C)[C@H]3CC[C@]12C [Compound 102] | – | – | – | – | 56.3 | 74.7 | – | – | – | – | – | – | – | – | – | – | – | –
4 | CCOC(=O)CNCC(=O)O[C@]1(C)CC[C@@]2(C)[C@@H](CC[C@@H]3[C@@H]2CC[C@]2(C)[C@@H](C(C)=O)CC[C@@H]32)C1 [Compound 103] | – | – | – | – | 98.4 | 75.9 | – | – | – | – | – | – | – | – | – | – | – | –
5 | COC(=O)[C@@H](C)NCC(=O)O[C@]1(C)CC[C@@]2(C)[C@@H](CC[C@@H]3[C@@H]2CC[C@]2(C)[C@@H](C(C)=O)CC[C@@H]32)C1 [Compound 106] | GNX not produced in human | – | – | – | – | – | – | – | – | – | – | 4.57 | 303 | 3.05 | 2.80 | – | – | –
6 | CC(=O)[C@H]1CC[C@H]2[C@@H]3CC[C@H]4C[C@](C)(OC(=O)CNCC(=O)OC(C)(C)C)CC[C@]4(C)[C@H]3CC[C@]12C [Compound 109] | – | – | – | – | 96.2 | 92.9 | – | – | – | – | – | – | – | – | – | – | – | –
7 | CC(=O)[C@H]1CC[C@H]2[C@@H]3CC[C@H]4C[C@](C)(OC(=O)COC(=O)C(C)(C)OC(=O)CN(CCO)CCO)CC[C@]4(C)[C@H]3CC[C@]12C [Compound 228] | In human GNX produced. | 6.2 | 225 | 6 | 89 | 1.7 | 1.4 | No GNX produced | 9 | 12 | In rat no GNX produced; | – | – | – | – | 511 | 32 | Observations: stability / GNX production in dog plasma (Dog plasma stability; dog plasma): No GNX produced; Dog plasma t90 (Dog plasma stability; dog plasma, 2 μg/mL, 37° C.): 3 min; half-life (Dog plasma stability; dog plasma, 2 μg/mL, 37° C., read-out: Dog plasma Half life (t1/2)): 20 min; microsomal CLint ([6]; dog liver microsomes 0.5 mg/mL, compound 0.5 μM, read-out: Dog Liver Microsomal Stability CLint (uL/min/mg liver)): 129 µL/min/mg; half-life ([6]; dog liver microsomes 0.5 mg/mL, compound 0.5 μM, read-out: Dog Liver Microsomal Stability t1/2): 10.7 min; Dog Liver Microsomal Stability no NADPH, % remain 1 h ([6]; dog liver microsomes, no NADPH): 12.9%; Rat plasma t90 (in vitro [4]; rat plasma, 2 μg/mL, 37° C.): 1.8 min; Observations: stability / GNX production in rat plasma (in vitro [4]; rat, plasma): GNX produced in rat; half-life [5, 12]: 16.4 min; microsomal CLint [5, 13]: 84.4 µL/min/mg; Rat Liver Microsomal Stability no NADPH, % remain 1 h [5, 14]: 15%
8 | CC(=O)OCCN(C)CC(=O)OC(C)(C)C(=O)OCC(=O)O[C@]1(C)CC[C@@]2(C)[C@@H](CC[C@@H]3[C@@H]2CC[C@]2(C)[C@@H](C(C)=O)CC[C@@H]32)C1 [Compound 242] | – | – | – | – | – | – | – | No GNX produced | 33 | – | – | 1.41 | 982 | 0.26 | 99.1 | – | – | Dog plasma t90 (Dog plasma stability; dog): 578 min; Observations: stability / GNX production in dog plasma (Dog plasma stability; dog plasma): No GNX produced; half-life (Dog plasma stability; dog plasma): 3840 min; half-life ([2]; simulated gi fluid, pH 1.2): 4600 min; half-life ([6]; dog, microsomes): 2.07 min; microsomal CLint ([6]; dog, microsomes): 668 µL/min/mg; Dog Liver Microsomal Stability no NADPH, % remain 1 h ([6]; dog, microsomes): 0.89%; SIF (% remain, 60 min) [3, 16]: 29%; half-life ([3]; simulated gi fluid, pH 6.8): 146 min; Human plasma t90 (in vitro [4]; human): 4.99 min
9 | COCCOCCOCC(=O)OCO[C@]1(C)CC[C@@]2(C)[C@@H](CC[C@@H]3[C@@H]2CC[C@]2(C)[C@@H](C(C)=O)CC[C@@H]32)C1 [Compound 503] | – | 5.65 | 245 | 11.6 | 68 | ~90 | – | – | < 30 | – | – | – | – | – | – | 118 | ~30 | –
10 | CC(=O)[C@H]1CC[C@H]2[C@@H]3CC[C@H]4C[C@](C)(OCOC(=O)CN5CCOCC5)CC[C@]4(C)[C@H]3CC[C@]12C [Compound 504] | – | 2.5 | 554 | 0.8 | 0.4 | 49.0 | 2.54 | – | 17.1 | – | – | – | – | – | – | 7.41 | 88.4 | –
